What was measured:
[1] = system: polychromatophil mouse erythrocytes (line C57 B1); test: Micronuclei in peripheral polychromatophil erythrocytes after electromagnetic irradiation; assay type: in vivo
Procedure: Protective properties of 9-phenyl-symmetric-octahydroselenoxanthene against non-ionizing radiation were examined by studying formation of micronuclei in polychromatophil mouse erythrocytes (line C57 B1). Micronuclei of the interphase nucleus are acentric chromosome fragments. Animals were exposed to electromagnetic radiation in millimeter wavelength range, frequency 39.5 GHz, and wavelength 7.5 mm for 1 hour. Flux density was approximately 3 microW/cm^2, which is 300 fold less than levels posing danger of overheating due to field energy absorption to a biological object.
5 mg/kg of 9-phenyl-symmetric-octahydroselenoxanthene was administered to group 1 (n=5) orally in 0.2 ml of oil 7 days prior to irradiation. Group 2 (n=5) received 0.2 ml of oil only and untreated mice were used as controls. Mice were sacrificed 1 day after irradiation and number of micronuclei was assayed in peripheral polychromatophil erythrocytes (150,000 cells per sample).

[2] = system: colony-forming cells in the spleen, CFC-S; test: Exogenous spleen colony assay (CFC-S) after agent and gamma-irradiation of donor mice; assay type: in vivo
Procedure: Assay of effect of various doses of ionizing radiation on hematopoiesis. 950 female mice of two lines—(CBA×C 57 B 1/6) F1 and (DBA×C 57B1/6) F1—were used in this study. Radiation was administered using a radiation therapy machine “Luch-1” utilizing gamma-rays ^60Co at 0.9 Gy/min. 9-phenyl-symmetric-octahydroselenoxanthene was administered orally in doses 1.0, 5.0, 10 and 20 mg/kg in 0.2 ml of oil. Agent was administered 1, 3 or 7 days prior to radiation treatment of 1.5 Gy; bone marrow was then extracted from donor mice, and cell suspension was injected into lethally irradiated (8 Gy) recipient mice of the same line. Colony-forming activity was assayed by number of exogenous spleen colonies when mice were sacrificed on day 9.
300 female mice of line (CBA×C57B1/6) F1 were used in the experiment. Radiation was administered using a radiation therapy machine “Luch-1” utilizing gamma-rays ^60Co at 0.9 Gy/min. 9-phenyl-symmetric-octahydroselenoxanthene was administered orally in doses 1.0, 5.0, 10 and 20 mg/kg in 0.2 ml of oil 7 days prior to radiation treatment at following doses: 1.5, 2.0, 3.0 and 5.0 Gy. Bone marrow was extracted 10-15 minutes after the treatment and the cell suspension was injected into lethally irradiated (8 Gy) recipient mice. Colony-forming activity was assayed by number of exogenous spleen colonies when mice were sacrificed on day 9.

[3] = system: Lewis lung carcinoma (LLC); test: Lewis lung carcinoma growth index and lung metastases with localized irradiation; assay type: in vivo, mice; conditions: for Average number of lung metastases: day 21, surviving animals
Procedure: The number of lung metastases was assayed on day 21 in surviving animals.
As in the previous series, tumor cells were injected subcutaneously into right hind leg at 2.0×10^6 cells/mouse (total of 40 mice).

CD34+ cells = test: Flow cytometry of CD34+ cells in bone marrow and peripheral blood; assay type: in vivo, mouse
Procedure: The effects of the proposed agent (9-phenyl-symmetric-octahydroselenoxanthene) on mouse hematopoiesis were assayed by flow cytometry. Relative number of CD34+ cells and the density of the antigen were assayed in peripheral blood cells (80,000 cells per sample) and bone marrow cells (40,000 cells per sample). As reported earlier, administration of the proposed agent has no effect on relative number of less differentiated stem cells (CD34+).

[4] = system: LLC (Lewis lung carcinoma); test: Lewis lung carcinoma growth and metastasis with Platidiam (cisplatin) treatment; assay type: in vivo, C57B1/6 mice
[5] = Inhibitor + localized irradiation
[6] = concurrent use with localized irradiation
[7] = Agent administered 1 day prior to analysis, no irradiation
[8] = Agent administered 7 days prior to analysis + irradiation, 1.5 Gy
[9] = Agent administered 7 days prior to analysis, no irradiation

9-phenyl-symmetric-octahydroselenoxanthene
Frequency of micronuclei-containing polychromatophil erythrocytes × 10^3 ([1]; 5 mg/kg orally 7 days prior to electromagnetic irradiation 39.5 GHz, 1 hour, assayed 1 day after irradiation): 6.0 ± 2.10 × 10^3 | protection against non-ionizing radiation ([1]; electromagnetic irradiation): confers protection | cell survival compared with the untreated control ([2]; 5.0 mg/kg 7 days prior, 1.5 Gy): not significantly different | Cell survival relative to the irradiated control ([2]; 5.0 mg/kg 7 days prior, all radiation doses excluding 1.5 Gy (2.0, 3.0, 5.0 Gy)): 2 fold | effect on CFC-S number in donor mice ([2]; 5.0 mg/kg of the agent alone at various time points prior to bone marrow extraction): no effect | Number of colonies formed per 10^5 of bone marrow cells, M ± m ([2]; 5 mg/kg orally, 1 day prior to irradiation 1.5 Gy): 6.4 ± 0.5 per 10^5 of bone marrow cells | Number of colonies formed per 10^5 of bone marrow cells, M ± m ([2]; 5 mg/kg orally, 1 day prior, no irradiation): 12.5 ± 0.6 per 10^5 of bone marrow cells | Number of colonies formed per 10^5 of bone marrow cells, M ± m ([2]; 5 mg/kg orally, 3 days prior to irradiation 1.5 Gy): 9.1 ± 0.5 per 10^5 of bone marrow cells | Number of colonies formed per 10^5 of bone marrow cells, M ± m ([2]; 5 mg/kg orally, 3 days prior, no irradiation): 10.7 ± 0.4 per 10^5 of bone marrow cells | Number of colonies formed per 10^5 of bone marrow cells, M ± m ([2]; 5 mg/kg orally, 7 days prior to irradiation 1.5 Gy (Table 1)): 12.7 ± 0.7 per 10^5 of bone marrow cells | Number of colonies formed per 10^5 of bone marrow cells, M ± m ([2]; 5 mg/kg orally, 7 days prior, no irradiation): 11.1 ± 0.7 per 10^5 of bone marrow cells | persistence of the CFC-S adaptive response ([2]; 5.0 mg/kg, 1.5 Gy): 7 days | increase in CFC-S compared to the irradiated control ([2]; 5.0 mg/kg, 1 day prior to 1.5 Gy (minimal effect)): 2 fold | decrease of the effects of radiation ([2]; 5.0 mg/kg, 7 days prior to 1.5 Gy (maximal effect)): 3 fold | Number of colonies formed per 10^5 of bone marrow cells, M ± m ([2]; 5 mg/kg, 7 days prior to radiation dose 1.5 Gy (Table 2)): 9.2 ± 0.2 per 10^5 of bone marrow cells | Number of colonies formed per 10^5 of bone marrow cells, M ± m ([2]; 5 mg/kg, 7 days prior to radiation dose 2.0 Gy): 3.6 ± 0.3 per 10^5 of bone marrow cells | Number of colonies formed per 10^5 of bone marrow cells, M ± m ([2]; 5 mg/kg, 7 days prior to radiation dose 3.0 Gy): 2.1 ± 0.1 per 10^5 of bone marrow cells | Number of colonies formed per 10^5 of bone marrow cells, M ± m ([2]; 5 mg/kg, 7 days prior to radiation dose 5.0 Gy): 0.6 ± 0.06 per 10^5 of bone marrow cells | Growth index [3, 5]: 4.6 ± 0.8 | Growth index ([3]; Inhibitor + localized irradiation, 1 day): 1 | Growth index ([3]; Inhibitor + localized irradiation, 4 days): 1.4 ± 0.1 | Growth index ([3]; Inhibitor + localized irradiation, 6 days): 1.7 ± 0.2 | Growth index ([3]; Inhibitor + localized irradiation, 8 days): 1.84 ± 0.3 | Growth index ([3]; Inhibitor + localized irradiation, 11 days): 2.65 ± 0.6 | Average number of lung metastases [3, 5]: 13.4 ± 1.8 | Growth index ([3]; Inhibitor alone): 7.7 ± 1.7 | Growth index ([3]; Inhibitor alone, 1 day): 1 | Growth index ([3]; Inhibitor alone, 4 days): 1.64 ± 0.1 | Growth index ([3]; Inhibitor alone, 6 days): 3.3 ± 0.25 | Growth index ([3]; Inhibitor alone, 8 days): 3.9 ± 0.7 | Growth index ([3]; Inhibitor alone, 11 days): 5.3 ± 0.7 | Average number of lung metastases ([3]; Inhibitor alone): 33.5 ± 2.5 | growth indexes of agent alone versus agent + irradiation ([3]; combination with irradiation): not significantly different | effect on metastasis [3, 6]: does not significantly increase metastasis | protection of tumor cells from effects of radiation [3, 6]: does not protect the tumor cells from effects of radiation | effect on tumor growth ([3]; inhibitor alone vs control): does not affect tumor growth | influence on metastatic processes ([3]; non-irradiated and irradiated tumor-bearing mice, day 21): does not influence metastatic processes significantly | Total CD34+ cells in bone marrow, 10^7, Mean (CD34+ cells; Agent administered 1 day prior to analysis + irradiation, 1.5 Gy): 2.1 10^7 | Total CD34+ cells in bone marrow, 10^7, Mean (CD34+ cells; [7]): 4.0 10^7 | Total CD34+ cells per 1 ml of peripheral blood, 10^3, Mean (CD34+ cells; [7]): 6.8 10^3 | Total CD34+ cells in bone marrow, 10^7, Mean (CD34+ cells; [8]): 1.0 10^7 | Total CD34+ cells per 1 ml of peripheral blood, 10^3, Mean (CD34+ cells; [8]): 3.8 10^3 | Total CD34+ cells in bone marrow, 10^7, Mean (CD34+ cells; [9]): 4.0 10^7 | Total CD34+ cells per 1 ml of peripheral blood, 10^3, Mean (CD34+ cells; [9]): 8.0 10^3 | number of more differentiated progenitors (CD34+ cells; blood cells, after 7 days): decreases | portion of CD34+ cells on the blood (CD34+ cells; blood cells, three experiments): does not change | density of CD34 antigen on the cell surface (CD34+ cells; by day 7 after the agent administration, p<0.05): increases | effect on relative number of less differentiated stem cells (CD34+) (CD34+ cells; flow cytometry): no effect | effect on differentiation of progenitor cells (CD34+ cells; peripheral blood and bone marrow composition after irradiation): blocks differentiation of progenitor cells of the granulocyte/macrophage lineage | effect on tumor growth and number of lung metastases ([4]; administered 30 minutes prior to chemotherapy with Platidiam (cisplatin)): did not exhibit any significant effect

N.N.[Cl][Pt][Cl] [Platidiam (cisplatin), cisplatin]
Avg number of lung metastases M ± m ([4]; C57B1/6 mice with LLC): 6.2 ± 0.7 | Tumor mass, g M ± m ([4]; C57B1/6 mice with LLC): 4.5 ± 0.5 g | Tumor volume, sm^3 M ± m ([4]; C57B1/6 mice with LLC): 4.6 ± 0.6 sm^3 | anti-tumor effect (tumor mass and lung metastases) ([4]; C57B1/6 mice with LLC): slight but consistent anti-tumor effect

Reference: patent US20090131391A1, “INHIBITOR FOR DIFFERENTIATION OF HEMATOPOIETIC PRECURSOR CELLS” (OOO "MBF", priority 2006, published 2009)
